Test results reported in patent US9429568B2, “Silaanthracene as a red and near infrared sensor and a method to manufacture such a sensor” (Board of Trustees of Southern Illinois University on Behalf …, priority 2010, dated 2016).

What was measured:
[1] = Hypochlorous acid (HOCl) sensor: fluorescence and absorbance response to added HOCl; assay type: physicochemical; conditions: 0.5 μM compound; for peak emission intensity wavelength: all HOCl concentrations
Protocol: A solution of compound 3 from Table 2 herein was formed at a concentration of 0.5 μM and at a pH of 7.4. HOCl was added to the solution at concentrations ranging up to 2 μM and the fluorescence of the resulting solutions was measured after exposure to an excitatory light pulse of 655 nm.
A solution of compound 29 from Table 5 herein was formed at a concentration of 0.5 μM and at a pH of 7.4. HOCl was added to the solution at concentrations ranging up to 5 μM and the fluorescence of the resulting solutions was measured after exposure to an excitatory light pulse of 580 nm.

[2] = Ratiometric sensor for hypochlorous acid and pH: UV-Vis and fluorescence in buffer series; assay type: physicochemical; conditions: excited at 430 nm, all HOCl concentrations, phosphate or citrate/phosphate buffer, 0.5% DMF
Protocol: A solution of compound 29 from Table 4 herein was dissolved in a series of phosphate buffer or citrate/phosphate buffer solutions using 0.5% DMF for dissolution. The pH level of each sample solution was checked using a digital pH meter (Accumet, AB15) equipped with a glass electrode (Accumet, pH/ATC Calomel) to confirm the pH of each sample solution. After recording the pH of a sample solution, 20 mL of the sample solution was stirred in a 50 mL beaker to saturate the sample solution with oxygen. Small aliquots from a dilute HOCl solution were then added to the sample solution. After the addition of each HOCl aliquot, the sample solution was stirred for approximately 45 seconds and then the UV-Vis and fluorescence of the sample solution was measured using a quartz cuvette with fluorescence excitations at 570 nm and 430 nm. The concentration of the NaOCl solution was determined by using a standardized sodium thiosulfate solution.

Structure (SMILES): CN(C)c1ccc2c(c1)[Si](C)(C)c1cc(N(C)C)ccc1C21SCc2ccccc21 [Compound 3]
- peak emission intensity wavelength ([1]; pH 7.4, HOCl up to 2 μM, excitation 655 nm): 663 nm

Structure (SMILES): C[Si]1(C)c2cc(O)ccc2C2(c3ccccc3C(=O)N2CCN2CCNCCNCCNCC2)c2ccc(O)cc21 [Compound 29]
- maximum absorbance wavelength λmax ([1]; pH 7.4, HOCl up to 5 μM): 590 nm
- shoulder peak emission wavelength ([1]; pH 7.4, HOCl up to 5 μM, excited at 430 nm): 570 nm
- peak emission intensity wavelength ([1]; pH 7.4, HOCl up to 5 μM, excited at 570 nm): 605 nm
- first emission intensity peak wavelength [2]: 570 nm
- second more intense emission peak wavelength [2]: 600 nm
